Measured values from patent publication US11297805B2, “Miticidal beehive entranceway” (priority 2019, dated 2022).

Tests used:
[1] = Simulated bee-flight (drone propeller) thymol decay and model of thymol dosage on a worker bee; parameters: species or system honey bee; conditions: 1 mg thymol/Hydromed behind drone propellers, 6 hours per day, exponential decay
Protocol: As such, a single worker bee would pass through the DF-TE 40×, receiving ˜0.7 μg per passage, or 28 μg per day.

Varroa mites = conditions: concentrated enough to kill the mites but not to harm the bees; cited from earlier work

Cc1ccc(C(C)C)c(O)c1 [thymol]
time until a single daily dose of thymol is exhausted on the bee abdomen [1]: ≤ 4 days
therapeutic window of thymol vapor (Varroa mites): 5-15 microgram/liter of hive air
